Laboratory results reported in patent US6348487B1, “2-phenyl benzimidazole derivatives as MCP-1 antagonists” (Millennium Pharmaceuticals, Inc., priority 1996, dated 2002).
Where “and” joins values, the source holds several entries; their conditions need not be identical. Equal entries are not always repeated.

molecular target: T1, MCP-1 receptor (Homo sapiens, UniProt P41597); test: MCP-1 Receptor Binding Assay (I125-labeled MCP-1, THP-1 cell membranes); conditions: THP-1 membranes, 0.2 nM I125-labeled MCP-1
T1 construct: host or cells: THP-1 (human monocytic cell line), membrane preparation
T1 sequence (P41597 1-360 isoform P41597-2): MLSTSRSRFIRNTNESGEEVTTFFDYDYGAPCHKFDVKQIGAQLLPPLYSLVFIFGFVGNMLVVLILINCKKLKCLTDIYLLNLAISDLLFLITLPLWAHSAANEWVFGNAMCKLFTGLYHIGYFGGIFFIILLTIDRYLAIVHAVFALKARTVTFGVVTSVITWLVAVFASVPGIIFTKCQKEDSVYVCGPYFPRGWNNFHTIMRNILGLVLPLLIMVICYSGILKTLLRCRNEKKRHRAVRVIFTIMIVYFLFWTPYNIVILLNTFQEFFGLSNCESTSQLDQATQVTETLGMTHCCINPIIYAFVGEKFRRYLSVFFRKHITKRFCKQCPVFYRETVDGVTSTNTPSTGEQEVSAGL
Method: Membranes used in the MCP-1 binding assay were prepared from THP-1 cells (human monocytic cell line source—American Type Culture Collection, Tumor Immunology Bank #202, Rockville, Md., accession no. ATCC TIB 202). Cells were harvested by centrifugation and washed twice in ice-cold PBS (phosphate-buffered saline) and the cell pellet was frozen at −80° C. in some cases. Cells were resuspended in ice-cold lysis buffer 5 mM HEPES (2-(4N-[2-hydroxyethyl]piperazin-1-yl)-N′-(2-ethanesulfonic acid), pH 7.5, 2 mM EDTA (ethylenediaminetetraacetic acid), 5 μg/mL each leupeptin, aprotinin, chymostatin (protease inhibitors), and 100 μg/mL PMSF (phenylmethane sulfonyl fluoride—also a protease inhibitor)) at a concentration of 5×10^7 cells/mL. The cell suspension was dounced 10-15 times using the B pestle (small pestle of tissue grinder—clearance is 0.07 mm; source—Fisher Scientific) on ice. Nuclei and debris were removed by centrifugation at 500-1000×g for 10 minutes at 4° C. The supernatant was transferred to a fresh tube and centrifuged at 25,000×g for 30 minutes at 4° C. The supernatant was aspirated and the pellet was resuspended in freezing buffer (10 mM HEPES, pH 7.5, 300 mM sucrose, 1 μg/mL each leupeptin, aprotinin, chymostatin, and 10 μg/mL PMSF) using a minihomogenizer until all clumps were resolved. Membranes were aliquoted and frozen at minus 70-85° C. until needed. Typical binding assays used 10-20 μg/well of total membrane protein as determined with a standard protein assay (e.g. Bradford protein assay, BioRad, Richmond, Calif.).
For binding, 10-20 μg of total membrane protein were included in the binding reaction along with 0.2 nM I^125-labeled MCP-1 (Amersham, Arlington Heights, Ill.) with or without unlabeled competitor MCP-1 (Peprotech, Rocky Hill, N.J.) (at 500 nM). Binding reactions were performed in a final volume of 100 μl in a binding buffer containing 10 mM HEPES, pH 7.2, 1 mM CaCl2, 5 mM MgCl2, 0.5% BSA (bovine serum albumin). After 30-60 minutes at room temperature, the binding reactions were filtered through GF/C filters (Whatman glass fiber filters, Type C) or GF/B unifilter plates (Packard) which had been pre-soaked with 0.3% polyethyleneimine and washed twice with binding buffer containing 0.5 M NaCl. Filters were dried and counted in a Beta-Plate scintillation counter using standard scintillation fluid. Final concentration of compound in the binding assay ranged from 0.05-100 μM. Compounds were dissolved in DMSO (dimethyl sulfoxide). Final concentrations of DMSO in the binding were kept constant at 0.5%.
IC50s were calculated using a non-linear 3-parameter logistic curve fit. IC50 means the concentration at which 50% inhibition is achieved. Negative controls contained the same amount of DMSO vehicle as used in wells containing compound. Positive control contained 250-500 nM cold competitor MCP-1 in DMSO vehicle. Non-specific binding (the level of bound ^125I-labeled MCP-1 in the presence of […] unlabeled MCP-1) was subtracted from all data prior to analysis.

IC50	Compound
10.9 µM	CN(CCN1CCCCC1)c1ccc(-c2nc3ccccc3[nH]2)cc1
15.5 µM	CN(CCN1CCCCC1)c1ccc(-c2nc3ccc(C(F)(F)F)cc3[nH]2)cc1
3.1 µM	CN(CCN1CCCCC1)c1ccc(-c2nc3ccc(C(C)(C)C)cc3[nH]2)cc1
8.6 µM	CN(CCN1CCCCC1)c1ccc(-c2nc3ccc(F)cc3[nH]2)cc1
12.1 µM	CN(CCN1CCCCC1)c1ccc(-c2nc3cc4ccccc4cc3[nH]2)cc1
11.5 µM	CCCCc1ccc2nc(-c3ccc(N(C)CCN4CCCCC4)cc3)[nH]c2c1
4.3 µM	CN(CCN1CCCCC1)c1ccc(-c2nc3ccc(Cc4ccccc4)cc3[nH]2)cc1
13.4 µM	CN(CCN1CCCCC1)c1ccc(-c2nc3cc(Cl)c(Cl)cc3[nH]2)cc1 [drawing 9]
5.9 µM	CN(CCN1CCCCC1)c1ccc(-c2nc3ccc(Cl)cc3[nH]2)cc1 [drawing 11]
9.6 µM	CN(CCN1CCCCC1)c1ccc(-c2nc3cc(Cl)c(F)cc3[nH]2)cc1 [drawing 12]
8.7 µM	Cc1ccc2nc(-c3ccc(N(C)CCN4CCCCC4)cc3)[nH]c2c1 [drawing 13]
6.3 µM	Cc1cc2nc(-c3ccc(N(C)CCN4CCCCC4)cc3)[nH]c2cc1C [drawing 14]

The remaining lines, values behind:

Compound	IC50
CN(CCN1CCCCC1)c1ccc(-c2nc3cc4c(cc3[nH]2)Cc2ccccc2-4)cc1	20.7 µM
CN(CCN1CCCCC1)c1ccc(-c2nc3ccc(-c4ccccc4)cc3[nH]2)cc1	15.1 µM
CN(CCN1CCCCC1)c1ccc(-c2nc3cc(Sc4ccc(Cl)c(Cl)c4)ccc3[nH]2)cc1	5.1 µM
CN(CCN1CCCCC1)c1ccc(-c2nc3ccc(C(=O)c4ccccc4)cc3[nH]2)cc1	11.3 µM
CN(CCN1CCCCC1)c1ccc(-c2nc3ccc(OCc4ccccc4)cc3[nH]2)cc1	15.4 µM
c1ccc(-c2ccc3nc(-c4ccc(NCCN5CCCCC5)cc4)[nH]c3c2)cc1	11.9 µM
CN(CCN1CCCCC1)c1ccc(-c2nc3ccc(Oc4ccc(Cl)c(Cl)c4)cc3[nH]2)cc1	6.4 µM
CN(CCN1CCCCC1)Cc1ccc(-c2nc3cc(Cl)c(Cl)cc3[nH]2)cc1	3.2 µM
CN(CCN1CCCCC1)c1ccc(-c2nc3ccc(NCCCCCc4ccccc4)cc3[nH]2)cc1	6.7 µM
CN(CCN1CCCCC1)c1ccc(-c2cc3cc(Cl)ccc3[nH]2)cc1	9.9 µM
CCN(CC)CCN(C)c1ccc(-c2nc3cc(Cl)c(Cl)cc3[nH]2)cc1	6.8 µM
CCN(CC)CCN(CCN(CC)CC)c1ccc(-c2nc3cc(Cl)c(Cl)cc3[nH]2)cc1 [drawing 8]	11.1 µM

test system: T lymphocyte blast cells (CD3-Blasts); test: CD3-Blast Chemotaxis Assay (transendothelial migration to MCP-1); type: cell-based, human; conditions: 10 μM compound; MCP-1 about 10 nM; ECV304 endothelial coated Transwells
Excerpt: Recombinant human MCP-1 was obtained from Peprotech (Rockey Hill, N.J.). T lymphocyte blast cells (CD3-Blasts) were generated by standard protocols (Coligan, J. E., A. M. Kruisbeek, D. H. Macgulies, E. M. Shevach, and W. Strober, editors. 1992. Current Protocols in Immunology. John Wiley and Sons, New York 7.1.2, 7.10.1-7.10. 10). Briefly, human peripheral blood mononuclear cells (PBMC) were isolated from heparinized venous blood by Percoll density gradient centrifugation (d=1.088) at room temperature. RBCs were removed by hypotonic lysis or dextran sedimentation. Blast cells were generated by incubating 2×10^6 PBMC in 24-well tissue culture plates that were coated with 2.5 μg of an anti-CD3 monoclonal antibody (identified as TR66, a gift from Dr. A. Lanzivecchia; similar monoclonal antibody is HIT3a, from Parmingen #30111A) at 37° C. for 48 to 72 hours, and then transferring 12 wells to T25 or T75 flasks with RPMI (Roswell Park Memorial Institute 1640, a growth cell medium available from Gibco/RBL, Inc., New York)+10% FCS (fetal calf serum)+50 units/ml IL-2. The cells are expanded and cultured for up to 3 weeks. CD3-Blast chemotaxis was assessed no sooner than 3 to 4 days after transfer to the IL-2 containing medium using a modification of a transendothelial migration assay (Carr. M. W., S. J. Roth, B. Luther, S. S. Rose, and T. A. Springer. 1994. Monocyte chemoattractant protein 1 acts as a T-lymphocyte chemoattractant. Proc. Natl. Acad. Sci. USA 91:3652-6). The endothelial cells used for this assay were the endothelial cell line ECV304. (ECV304 was from the European Collection of Animal Cell Cultures, Porton Downs, UK, assession #92091712). Endothelial cells were cultured on 6.5 mm diameter Transwell culture inserts (Costar) with a […] pore size. […] Background migration was determined by counting cells that migrated in the absence of MCP-1 in the lower chamber. […] The percent inhibition by compounds of directed migration was determined by the following formula: [drawing 32] […]

Compound	% Inhibition of Chemotaxis at 10 μM
CN(CCN1CCCCC1)c1ccc(-c2nc3cc(Cl)c(Cl)cc3[nH]2)cc1 [Example 2, N-[4-(5 ,6-dichloro-1H-benzimidazol-2-yl)-phenyl]-N-methyl-N-(2-piperidin-1-yl-ethyl)-amine]	100% and 102%
N-[4-(5,6-dichloro-1H-benzimidazol-2-yl)-phenyl]-N-(2-diethylaminoethyl)-N-methyl, N-diethyl-ethane-1,2-diamine [Example 3]	95% and 102%

test system: not given; test: not given; conditions: not given

melting point	Compound
273 °C	COc1ccc2nc(-c3ccc(N(C)CCN4CCCCC4)cc3)[nH]c2c1.Cl.Cl
165 to 167 °C	CN(CCN1CCCCC1)c1ccc(-c2nc3cc(Cl)c(Cl)cc3[nH]2)cc1 [Example 2, N-[4-(5 ,6-dichloro-1H-benzimidazol-2-yl)-phenyl]-N-methyl-N-(2-piperidin-1-yl-ethyl)-amine]
196 °C	CN(CCN1CCCCC1)c1ccc(-c2nc3ccc(Cl)cc3[nH]2)cc1 [Example 4, [4-[6-Chloro-1H-benzoimidazol-2-yl)-phenyl]-methyl-(2-piperidin-1-yl-ethyl)-amine]
167 to 168 °C	CN(CCN1CCCCC1)c1ccc(-c2nc3cc(Cl)c(F)cc3[nH]2)cc1 [Example 5, [4-(5-Chloro-6-fluoro-1H-benzoimidazol-2-yl)-phenyl]-methyl-(2-piperidin-1-yl-ethyl)-amine]
165 °C	Cc1ccc2nc(-c3ccc(N(C)CCN4CCCCC4)cc3)[nH]c2c1 [Example 6, Methyl-[4-(6-methyl-1H-benzoimidazol-2-yl)-phenyl]-(2-piperidin-1-yl-ethyl)-amine]
194 to 196 °C	Cc1cc2nc(-c3ccc(N(C)CCN4CCCCC4)cc3)[nH]c2cc1C [Example 7, [4-(5,6-Dimethyl-1H-benzoimidazol-2-yl)-phenyl]-methyl-(2-piperidin-1-yl-ethyl)-amine]

Second part, the compound before the results:

Compound	melting point
CN(CCN1CCCCC1)c1ccc(-c2nc3ccc(Cl)c(Cl)c3[nH]2)cc1 [Example 8, [4-(6,7-Dichloro-1H-benzoimidazol-2-yl)-phenyl]-methyl-(2-piperidin-1-yl-ethyl)-amine]	164 °C
CN(CCN1CCCCC1)c1ccc(C2=Nc3ccc(Cl)cc3C2)cc1 [Example 10, [4-(5-Chloro-3H-indol-2-yl)-phenyl]-methyl-(2-piperidin-1-yl-ethyl)-amine]	192 °C
